According to patent US20240150342A1, “ESTROGEN-RELATED RECEPTOR ALPHA MODULATORS” (LEAD PHARMA HOLDING B.V., priority 2019, published 2024):

Target: T1, ERRα ligand binding domain (ERRα-LBD) (Homo sapiens, UniProt P11474)
T1 construct: made in house; host or cells: E. coli
T1 sequence (P11474 193-421 limits assumed): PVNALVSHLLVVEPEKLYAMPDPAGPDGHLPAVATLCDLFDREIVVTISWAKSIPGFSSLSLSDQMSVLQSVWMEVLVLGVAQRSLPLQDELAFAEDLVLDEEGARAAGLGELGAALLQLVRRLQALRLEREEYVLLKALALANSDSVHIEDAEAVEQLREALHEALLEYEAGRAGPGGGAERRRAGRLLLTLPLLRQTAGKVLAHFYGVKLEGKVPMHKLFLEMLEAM
Assay: ERRα AlphaScreen Assay
Assay type: biochemical
Conditions: disruption of binding of ERRα-LBD protein to biotin-PGC1α-3 co-activator peptide; read-out: mean pIC50 (converted)
Text: This assay was based on the knowledge that nuclear receptors interact with cofactors in a ligand dependent matter. The sites of interaction have been mapped to LXXLL motifs that are present in the co-activator sequences. Short peptide sequences that contain the LXXLL motif mimic the behavior of full length co-activators.
The ERRα AlphaScreen Assay described here relies on the interaction of the co-activator peptide with purified bacterial- expressed ERRα ligand binding domain (ERRα-LBD); upon ligand binding, the ERRα protein can undergo a conformational change resulting in a loss of co-activator binding.
Compounds of the present invention were tested for their ability to disrupt binding of ERRα-LBD protein to co-activator peptide using AlphaScreen® Technology (Perkin Elmer). ERRα-LBD protein was expressed in E. coli as a 6×His Small Ubiquitin-like Modifier (SUMO) fusion. Bacterial expressed 6His-SUMO-ERRα-LBD protein was purified using affinity chromatography. All experiments were performed at room temperature in 384-well white non-binding plates (Greiner) using 50 mM Tris-HCl pH 7.5, 100 mM NaCl, 0.1% Pluronic F-127, 0.05% BSA and 5 mM TCEP as the buffer. Final DMSO concentration was 1% in the assay. Compounds were assayed in triplicate and: incubated with 0.81 nM ERRα-LBD protein and 10 μg/mL streptavidin donor beads and 10 μg/mL Ni-chelate acceptor beads for 1 hour at room temperature; followed by a 2-hour incubation with 15 nM biotin-PGC1α-3 peptide (QRRPCSELLKYLTTNDDPP) corresponding to amino acids 202 to 220.
The AlphaScreen signal was measured using an Envision Xcite plate reader (Perkin Elmer). Data was normalized, and curve fitting analysis was performed in GraphPad Prism 7 using a four-parameter dose-response fit.

Row | Compound | IC50 [nM]
1 | COc1cc(C2CC(=O)Nc3n[nH]cc32)ccc1Oc1cc(Br)cc(C(F)(F)F)c1 (centres unmarked) [Example 42, 4-{4-[3-bromo-5-(trifluoromethyl)phenoxy]-3-methoxyphenyl}-2H,4H,5H,6H,7H-pyrazolo[3,4-b]pyridin-6-one] | 10 to 100
2 | COc1cc(C2CC(=O)Nc3n[nH]cc32)ccc1Oc1ccc(C(F)(F)F)cc1 (centres unmarked) [Example 5, 4-{3-methoxy-4-[4-(trifluoromethyl)phenoxy]phenyl}-2H,4H,5H,6H,7H-pyrazolo[3,4-b]pyridin-6-one] | 100 to 1000
3 | COc1cc(C2CC(=O)Nc3n[nH]cc32)ccc1Oc1cccc(Br)c1 (centres unmarked) [Example 14, 4-[4-(3-bromophenoxy)-3-methoxyphenyl]-2H,4H,5H,6H,7H-pyrazolo[3,4-b]pyridin-6-one] | 100 to 1000
4 | COc1cc(C2CC(=O)Nc3n[nH]cc32)ccc1Oc1ccccc1Cc1ccccc1 (centres unmarked) [Example 26, 4-[4-(2-benzylphenoxy)-3-methoxyphenyl]-2H,4H,5H,6H,7H-pyrazolo[3,4-b]pyridin-6-one] | 100 to 1000
5 | COc1cc(C2CC(=O)Nc3n[nH]cc32)ccc1Oc1cccc(C(C)(C)C)c1 (centres unmarked) [Example 15, 4-[4-(3-tert-butylphenoxy)-3-methoxyphenyl]-2H,4H,5H,6H,7H-pyrazolo[3,4-b]pyridin-6-one] | 10 to 100
6 | COc1cc(Oc2ccc(C3CC(=O)Nc4n[nH]cc43)cc2F)cc(C(F)(F)F)c1 (centres unmarked) [Example 57, 4-{3-fluoro-4-[3-methoxy-5-(trifluoromethyl)phenoxy]phenyl}-2H,4H,5H,6H,7H-pyrazolo[3,4-b]pyridin-6-one] | 10 to 100
7 | COc1cc(C2CC(=O)Nc3n[nH]cc32)ccc1Oc1cccc(C(F)(F)F)c1 (centres unmarked) [Example 6, 4-{3-methoxy-4-[3-(trifluoromethyl)phenoxy]phenyl}-2H,4H,5H,6H,7H-pyrazolo[3,4-b]pyridin-6-one] | 100 to 1000
8 | COc1cc(C2CC(=O)Nc3n[nH]cc32)ccc1Oc1cc(C(F)F)cc(C(F)(F)F)c1 (single isomer, unassigned; (+)) [Example 85, (+)-4-{4-[3-(difluoromethyl)-5-(trifluoromethyl)phenoxy]-3-methoxyphenyl}-2H,4H,5H,6H,7H-pyrazolo[3,4-b]pyridin-6-one] | 100 to 1000

The next lines start with the values.

Row | IC50 [nM] | Compound
9 | 10 to 100 | COc1cc(C2CC(=O)Nc3n[nH]cc32)ccc1Oc1cc(C(F)F)cc(C(F)(F)F)c1 (centres unmarked) [Example 77, 4-{4-[3-(difluoromethyl)-5-(trifluoromethyl)phenoxy]-3-methoxyphenyl}-2H,4H,5H,6H,7H-pyrazolo[3,4-b]pyridin-6-one]
10 | 100 to 1000 | COC(=O)C1C(=O)Nc2n[nH]cc2C1c1ccc(Oc2cc(C(F)(F)F)cc(C(F)(F)F)c2)c(OC)c1 (centres unmarked) [Example 72, methyl 4-{4-[3,5-bis(trifluoromethyl)phenoxy]-3-methoxyphenyl}-6-oxo-2H,4H,5H,6H,7H-pyrazolo[3,4-b]pyridine-5-carboxylate]
11 | 10 to 100 | COc1cc(C2CC(=O)Nc3n[nH]cc32)ccc1Oc1cccc2c1OC(C)(C)C2 (centres unmarked) [Example 48, 4-{4-[(2,2-dimethyl-2,3-dihydro-1-benzofuran-7-yl)oxy]-3-methoxyphenyl}-2H,4H,5H,6H,7H-pyrazolo[3,4-b]pyridin-6-one]
12 | ≤ 10 | COc1ccc(Oc2ccc(C3CC(=O)Nc4n[nH]cc43)cc2OC)c(C(C)(C)C)c1 (centres unmarked) [Example 27, 4-[4-(2-tert-butyl-4-methoxyphenoxy)-3-methoxyphenyl]-2H,4H,5H,6H,7H-pyrazolo[3,4-b]pyridin-6-one]
13 | 10 to 100 | COc1cc(C2CC(=O)Nc3n[nH]cc32)ccc1Oc1cc(C)cc(C)c1 (centres unmarked) [Example 64, 4-[4-(3,5-dimethylphenoxy)-3-methoxyphenyl]-2H,4H,5H,6H,7H-pyrazolo[3,4-b]pyridin-6-one]
14 | 100 to 1000 | COc1cc(C2CC(=O)Nc3n[nH]cc32)ccc1Oc1cc(C)cc(C(F)(F)F)c1 (single isomer, unassigned; (+)) [Example 83, (+)-4-{3-methoxy-4-[3-methyl-5-(trifluoromethyl)phenoxy]phenyl}-2H,4H,5H,6H,7H-pyrazolo[3,4-b]pyridin-6-one]
